Test results taken from patent US12522615B2, “Macrocyclic compounds and derivatives as EGFR inhibitors” (Boehringer Ingelheim International GmbH, priority 2019, dated 2026).
pIC50: −log10 of the molar value.

These molecules were tested against EGFR (mutated) 695-1022, T790M, C797S, L858R (Homo sapiens (Human), UniProt P00533, C797S/L858R/T790M) (assay: Biochemical EGFR inhibition assay (poly-GT substrate phosphorylation, TR-FRET LANCE Ultra)). Conditions: 100 μM ATP; read-out: LR_TM_CS (100 μM ATP).
Sequence of EGFR (mutated) 695-1022, T790M, C797S, L858R (P00533 695-1022 T790M/C797S/L858R): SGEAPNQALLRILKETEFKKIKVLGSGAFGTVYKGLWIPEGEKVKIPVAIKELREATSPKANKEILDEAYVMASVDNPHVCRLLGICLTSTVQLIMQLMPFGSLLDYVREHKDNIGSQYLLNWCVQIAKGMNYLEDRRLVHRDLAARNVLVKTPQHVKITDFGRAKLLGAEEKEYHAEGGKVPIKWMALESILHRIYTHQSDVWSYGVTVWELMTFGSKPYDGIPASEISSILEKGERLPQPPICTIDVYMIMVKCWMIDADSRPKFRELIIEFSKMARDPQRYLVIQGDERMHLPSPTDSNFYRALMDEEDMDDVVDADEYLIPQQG
Method: (§1) Initially, the inhibitory effect of compounds according to the invention is measured in biochemical assays which measure the phosphorylation activity of EGFR enzyme forms on poly-GT substrate in the presence of different concentrations of ATP (5 μM and 100 μM final assay concentration).
(§2) The following enzyme forms of EGFR are representative examples that can be used in these assays at the given concentrations:
(§3) For the chosen highest assay concentration of 100 μM, 150 nL of compound solution is transferred from a 10 mM DMSO compound stock solution. A series of eleven fivefold dilutions per compound is transferred to the assay plate, compound dilutions are tested in duplicates. DMSO is added as backfill to a total volume of 150 nL. The assay runs on a fully automated robotic system.
(§4) 5 μL of EGFR enzyme form in assay buffer (50 mM HEPES pH 7.3, 10 mM MgCl2, 1 mM EGTA, 0.01% Tween 20, 2 mM DTT) are dispensed into columns 1-23, than 5 μL of ATP and ULight-poly-GT substrate (PerkinElmer; TRF0100-M) mix in assay buffer is added to all wells (final assay concentration of the ULight-poly-GT substrate 200 nM). Each of the different EGFR enzyme form assays is available at low ATP (final assay concentration 5 μM) and high ATP levels (final assay concentration 100 μM). After 90 minutes incubation at room temperature 5 μL EDTA (final assay concentration 50 mM) and LANCE Eu-anti-P-Tyr (PT66) antibody (PerkinElmer, AD0069) (final assay concentration 6 nM) mix are added to stop the reaction and start the binding of the antibody. […] Each plate contains 16 wells of a negative control (diluted DMSO instead of test compound; w EGFR enzyme form; column 23) and 16 wells of a positive control (diluted DMSO instead of test compound; w/o EGFR enzyme form; column 24). Negative and positive control values are used for normalization and IC50 values are calculated and analysed using a 4 parametric logistic model.
(§5) These biochemical EGFR enzyme form compound dose-response assays quantify the kinase activity via phosphorylation of a tagged poly-GT substrate. The results of the assay are provided as IC50 values.
`Cc1cc2cc(n1)-c1cnn(C)c1OCCCCCN1/C(=N/C2=O)Nc2ccccc21` [Compound I-001] was tested, and the pIC50 was 8.22.
Work on `Cc1cc2cc(n1)-c1cnn(C)c1OCCC[C@@H](C)CN1/C(=N/C2=O)Nc2ccccc21` [Compound I-003] yielded a pIC50 of 8.52.
`Cc1cc2cc(n1)-c1cnn(C)c1OCCC[C@@H](C)CN1/C(=N/C2=O)Nc2ccc(Br)cc21` [Compound I-005] was tested, and the pIC50 was 7.80.

What follows are molecules tested against EGFR wt (Homo sapiens (Human), UniProt P00533) in the same assay as above. Conditions: 100 μM ATP; read-out: wt (100 μM ATP).
Sequence of EGFR wt (P00533 25-1210): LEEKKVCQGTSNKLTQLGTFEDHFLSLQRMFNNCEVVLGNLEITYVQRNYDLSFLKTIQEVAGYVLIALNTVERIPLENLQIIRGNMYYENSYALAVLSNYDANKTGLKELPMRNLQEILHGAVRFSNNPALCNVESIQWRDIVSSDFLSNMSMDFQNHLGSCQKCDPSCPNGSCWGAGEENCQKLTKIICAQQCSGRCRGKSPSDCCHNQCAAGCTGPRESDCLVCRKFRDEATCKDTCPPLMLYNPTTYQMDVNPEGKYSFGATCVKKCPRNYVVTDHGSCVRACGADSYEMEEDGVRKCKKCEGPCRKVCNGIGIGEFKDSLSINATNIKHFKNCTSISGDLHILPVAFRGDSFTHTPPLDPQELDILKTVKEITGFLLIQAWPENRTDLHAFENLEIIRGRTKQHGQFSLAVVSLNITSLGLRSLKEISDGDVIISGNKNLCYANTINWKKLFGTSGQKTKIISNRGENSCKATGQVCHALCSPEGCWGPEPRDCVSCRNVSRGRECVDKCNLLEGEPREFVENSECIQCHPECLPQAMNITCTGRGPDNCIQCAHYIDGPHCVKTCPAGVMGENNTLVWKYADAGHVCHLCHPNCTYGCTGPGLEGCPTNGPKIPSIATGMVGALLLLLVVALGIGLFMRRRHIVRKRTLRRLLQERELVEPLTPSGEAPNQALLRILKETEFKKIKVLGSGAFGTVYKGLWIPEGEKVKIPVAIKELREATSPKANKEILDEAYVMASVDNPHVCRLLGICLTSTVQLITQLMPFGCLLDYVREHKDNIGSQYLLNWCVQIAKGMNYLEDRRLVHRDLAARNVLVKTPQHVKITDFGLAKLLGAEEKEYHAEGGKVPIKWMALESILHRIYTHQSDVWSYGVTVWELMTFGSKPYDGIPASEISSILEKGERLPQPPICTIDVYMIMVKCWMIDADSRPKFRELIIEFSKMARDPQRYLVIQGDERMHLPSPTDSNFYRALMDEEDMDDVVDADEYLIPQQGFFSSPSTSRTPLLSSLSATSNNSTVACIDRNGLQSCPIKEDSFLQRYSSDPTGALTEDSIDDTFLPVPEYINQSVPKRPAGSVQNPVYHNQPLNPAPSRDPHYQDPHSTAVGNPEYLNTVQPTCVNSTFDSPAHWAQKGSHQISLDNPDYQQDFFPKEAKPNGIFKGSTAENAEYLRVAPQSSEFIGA
Method: as §1, §2, §3, §4, §5
`Cc1cc2cc(n1)-c1cnn(C)c1OCCCCCN1/C(=N/C2=O)Nc2ccccc21` [Compound I-001] showed a pIC50 of under 4.00.
Work on `Cc1cc2cc(n1)-c1cnn(C)c1OCCC[C@@H](C)CN1/C(=N/C2=O)Nc2ccccc21` [Compound I-003] yielded a pIC50 of 6.05.
For `Cc1cc2cc(n1)-c1cnn(C)c1OCCC[C@@H](C)CN1/C(=N/C2=O)Nc2ccc(Br)cc21` [Compound I-005], the pIC50 was under 4.00.

The molecules below were run against EGFR del19 T790M C797S (Homo sapiens, UniProt P00533, C797S/T790M, form not given) (assay: pEGFR assay: phosphorylation of EGFR at Tyr1068 in Ba/F3 cells (AlphaScreen Surefire)). Conditions: 4 h.
Sequence of EGFR del19 T790M C797S (P00533 25-1210 T790M/C797S limits assumed, form open): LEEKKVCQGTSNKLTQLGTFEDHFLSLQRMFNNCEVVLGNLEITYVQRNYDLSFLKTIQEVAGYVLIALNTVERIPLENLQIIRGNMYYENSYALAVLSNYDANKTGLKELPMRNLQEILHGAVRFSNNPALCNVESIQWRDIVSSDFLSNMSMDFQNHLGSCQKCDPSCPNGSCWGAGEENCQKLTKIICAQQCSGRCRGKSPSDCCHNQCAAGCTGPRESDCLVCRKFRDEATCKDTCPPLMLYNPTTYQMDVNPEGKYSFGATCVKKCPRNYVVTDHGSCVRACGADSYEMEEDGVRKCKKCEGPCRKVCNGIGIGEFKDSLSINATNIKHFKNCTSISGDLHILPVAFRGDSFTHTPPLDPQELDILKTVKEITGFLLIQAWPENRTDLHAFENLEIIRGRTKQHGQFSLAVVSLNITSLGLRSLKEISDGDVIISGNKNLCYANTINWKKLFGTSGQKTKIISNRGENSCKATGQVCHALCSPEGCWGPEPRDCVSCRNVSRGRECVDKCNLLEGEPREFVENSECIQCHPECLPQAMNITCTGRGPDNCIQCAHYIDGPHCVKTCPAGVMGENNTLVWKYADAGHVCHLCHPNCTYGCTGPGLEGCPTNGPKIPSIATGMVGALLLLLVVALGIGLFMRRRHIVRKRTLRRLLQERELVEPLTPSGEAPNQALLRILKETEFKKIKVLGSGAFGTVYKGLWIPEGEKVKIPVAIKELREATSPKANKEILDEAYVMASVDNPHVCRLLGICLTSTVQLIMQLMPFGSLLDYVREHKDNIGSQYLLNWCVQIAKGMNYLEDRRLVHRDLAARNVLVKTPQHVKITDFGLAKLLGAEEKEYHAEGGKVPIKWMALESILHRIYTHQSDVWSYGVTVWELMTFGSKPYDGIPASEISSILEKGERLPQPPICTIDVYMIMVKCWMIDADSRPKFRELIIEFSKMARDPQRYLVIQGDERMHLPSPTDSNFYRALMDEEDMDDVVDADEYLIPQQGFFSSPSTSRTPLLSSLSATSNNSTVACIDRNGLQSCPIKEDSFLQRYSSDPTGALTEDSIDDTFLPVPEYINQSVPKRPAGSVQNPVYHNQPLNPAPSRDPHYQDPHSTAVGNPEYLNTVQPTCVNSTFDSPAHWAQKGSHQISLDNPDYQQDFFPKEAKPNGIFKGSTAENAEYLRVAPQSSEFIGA
Type: cell-based
Method: Transduced cells were selected using puromycin. Following selection, IL-3 was withdrawn and IL-3 independent cells cultured. p-EGFR Tyr1068 was determined using the AlphaScreen Surefire pEGF Receptor (Tyr1068) Assay (PerkinElmer, TGRERS). […] Subsequently, 60.000 cells/well in 60 μL were added. Cells were incubated with compound for 4 h at 37° C. […] The mixture was incubated at room temperature with shaking (700 rpm) for 20 min. After centrifugation, 4 μL of the lysate were transferred to Proxiplates. […] Plates were shaken for 1 min (1400 rpm) and incubated for 2 h at room temperature in the dark.
For `Cc1cc2cc(n1)-c1cnn(C)c1OCCCCCN1/C(=N/C2=O)Nc2ccccc21` [Compound I-001], the pIC50 was 8.92.
`Cc1cc2cc(n1)-c1cnn(C)c1OCCCCCCN1/C(=N/C2=O)Nc2ccccc21` [Compound I-002] showed a pIC50 of 8.38.
Work on `Cc1cc2cc(n1)-c1cnn(C)c1OCCC[C@@H](C)CN1/C(=N/C2=O)Nc2ccccc21` [Compound I-003] yielded a pIC50 of 9.10.
`C[C@@H]1CCCOc2c(cnn2C)-c2cc(cc(C#N)n2)C(=O)/N=C2\Nc3ccccc3N2C1` [Compound I-004] was tested, and the pIC50 was 8.89.
For `Cc1cc2cc(n1)-c1cnn(C)c1OCCC[C@@H](C)CN1/C(=N/C2=O)Nc2ccc(Br)cc21` [Compound I-005], the pIC50 was 8.40.
Molecule `Cc1cc2cc(n1)-c1cnn(C)c1OCC[C@@H]1CC[C@@H](C1)N1/C(=N/C2=O)Nc2ccccc21` [Compound I-006] has a pIC50 of 7.77.
`Cc1cc2cc(n1)-c1cnn(C)c1OCCC[C@@H](O)CN1/C(=N/C2=O)Nc2ccccc21` [Compound I-007] gave a pIC50 of 8.96.
In the case of `Cc1cc2cc(n1)-c1cnn(C)c1OCCC[C@H](O)CN1/C(=N/C2=O)Nc2ccccc21` [Compound I-008], the pIC50 was 8.13.
Work on `Cc1cc2cc(n1)-c1cnn(C)c1OCC[C@H](O)CCN1/C(=N/C2=O)Nc2ccccc21` [Compound I-009] yielded a pIC50 of 9.00.
`Cc1cc2cc(n1)-c1cnn(C)c1OCCC(O)CCN1/C(=N/C2=O)Nc2ccccc21` (stereo not shown) [Compound I-010] was tested, and the pIC50 was 8.92.
In the case of `Cc1cc2cc(n1)-c1cnn(C)c1OCC[C@@H](O)CCN1/C(=N/C2=O)Nc2ccccc21` [Compound I-011], the pIC50 was 8.19.
Work on `Cn1ncc2c1OCCC(O)CCN1/C(=N/C(=O)c3cc(Cl)nc-2c3)Nc2ccccc21` (stereo not shown) [Compound I-012] yielded a pIC50 of 8.28.
`Cc1cc2cc(n1)-c1cnn(C)c1OC[C@@H](O)C[C@@H](C)CN1/C(=N/C2=O)Nc2ccccc21` [Compound I-013] gave a pIC50 of 9.15.
For `Cc1cc2cc(n1)-c1cnn(C)c1OC[C@H](O)C[C@@H](C)CN1/C(=N/C2=O)Nc2ccccc21` [Compound I-014], the pIC50 was 8.38.
In the case of `Cc1cc2cc(n1)-c1cnn(C)c1OCC[C@H](O)[C@@H](C)CN1/C(=N/C2=O)Nc2ccccc21` [Compound I-015], the pIC50 was 9.22.
For `Cc1cc2cc(n1)-c1cnn(C)c1OC[C@@H](C)[C@H](O)CCN1/C(=N/C2=O)Nc2ccccc21` [Compound I-016], the pIC50 was 9.10.
`Cc1cc2cc(n1)-c1cnn(C)c1OC[C@@H](C)[C@@H](O)CCN1/C(=N/C2=O)Nc2ccccc21` [Compound I-017] was tested, and the pIC50 was 8.05.
Work on `Cc1cc2cc(n1)-c1cnn(C)c1OCCC[C@@H](C)CN1/C(=N/C2=O)Nc2ccc(OCCN3CCN(C)CC3)cc21` [Compound I-018] yielded a pIC50 of 9.30.
Work on `Cc1cc2cc(n1)-c1cnn(C)c1OCCC[C@@H](C)CN1/C(=N/C2=O)Nc2ccc(N3CCN(C)CC3)cc21` [Compound I-019] yielded a pIC50 of 9.22.
In the case of `CC[C@@H]1CCCOc2c(cnn2C)-c2cc(cc(C)n2)C(=O)/N=C2\Nc3ccc(N4CCN(C)CC4)cc3N2C1` [Compound I-020], the pIC50 was 9.22.
For `C[C@@H]1CCCOc2c(cnn2C)-c2cc(cc(Cl)n2)C(=O)/N=C2\Nc3ccc(CN4CCN(C)CC4)cc3N2C1` [Compound I-022], the pIC50 was 9.10.
In the case of `C[C@@H]1CCCOc2c(cnn2C)-c2cc(cc(F)n2)C(=O)/N=C2\Nc3cn(C)nc3N2C1` [Compound I-023], the pIC50 was 9.30.
With `Cc1cc2cc(n1)-c1cnn(C)c1OCCC[C@@H](C)CN1/C(=N/C2=O)Nc2cn(C)nc21` [Compound I-024] the pIC50 was 9.22.
Work on `Cc1cc2cc(n1)-c1cnn(C)c1OCCC[C@@H](C)CN1/C(=N/C2=O)Nc2cnn(C)c21` [Compound I-025] yielded a pIC50 of 9.10.
`C[C@@H]1CCCOc2c(cnn2C)-c2cc(cc(Cl)n2)C(=O)/N=C2\Nc3cn(C)nc3N2C1` [Compound I-026] gave a pIC50 of 8.82.
`C[C@@H]1C[C@H](O)COc2c(cnn2C)-c2cc(cc(Cl)n2)C(=O)/N=C2\Nc3cn(C)nc3N2C1` [Compound I-028] gave a pIC50 of 8.46.
`C[C@@H]1CCCOc2c(cnn2C)-c2cc(cc(Cl)n2)C(=O)/N=C2\Nc3cnn(C)c3N2C1` [Compound I-029] was tested, and the pIC50 was 8.12.
For `Cc1cc2cc(n1)-c1cnn(C)c1OCCC(O)CCN1/C(=N/C2=O)Nc2cnn(C)c21` (stereo not shown) [Compound I-030], the pIC50 was 7.55.
Molecule `Cc1cc2cc(n1)-c1cnn(C)c1OC[C@@H](C)CCCN1/C(=N/C2=O)Nc2ccc(N3CCN(C)CC3)cc21` [Compound I-031] has a pIC50 of 9.30.
Work on `Cc1cc2cc(n1)-c1cnn(C)c1OCCC[C@@H](C)CN1/C(=N/C2=O)Nc2ccc(N3CCOCC3)cc21` [Compound I-032] yielded a pIC50 of 9.22.
`Cc1cc2cc(n1)-c1cnn(C)c1OCCC[C@@H](C)CN1/C(=N/C2=O)Nc2cc(N3CCN(C)CC3)ccc21` [Compound I-033] was tested, and the pIC50 was 9.22.
`C[C@@H]1CCCOc2c(cnn2C)-c2cc(cc(F)n2)C(=O)/N=C2\Nc3ccccc3N2C1` [Compound I-034] showed a pIC50 of 9.15.
Work on `Cc1cc2cc(n1)-c1cnn(C)c1OCCC[C@@H](C)CN1/C(=N/C2=O)Nc2ccc(CN(C)C)cc21` [Compound I-035] yielded a pIC50 of 9.15.
With `C[C@@H]1CCCOc2c(cnn2C)-c2cc(ccn2)C(=O)/N=C2\Nc3cnn(C)c3N2C1` [Compound I-036] the pIC50 was 9.15.
`Cc1cc2cc(n1)-c1cnn(C)c1OCCC[C@@H](C)CN1/C(=N/C2=O)Nc2ccc(C(=O)N(C)C)cc21` [Compound I-038] showed a pIC50 of 8.89.
`Cc1cc2cc(n1)-c1cnn(C)c1OCCC[C@@H](C)CN1/C(=N/C2=O)Nc2ccc(C(=O)N3CCN(C)CC3)cc21` [Compound I-039] was tested, and the pIC50 was 8.80.
`Cc1cc2cc(n1)-c1cnn(C)c1OC[C@@H](C)CCCN1/C(=N/C2=O)Nc2cnn(C)c21` [Compound I-040] gave a pIC50 of 8.77.
In the case of `COc1cccc2c1N1C[C@H](C)CCCOc3c(cnn3C)-c3cc(cc(C)n3)C(=O)/N=C/1N2` [Compound I-041], the pIC50 was 8.72.
`COC(=O)c1ccc2c(c1)N1C[C@H](C)CCCOc3c(cnn3C)-c3cc(cc(C)n3)C(=O)/N=C/1N2` [Compound I-042] gave a pIC50 of 8.64.
With `Cc1cc2cc(n1)-c1cnn(C)c1OC[C@@H](C)CCCN1/C(=N/C2=O)Nc2cc(N3CCN(C)CC3)ccc21` [Compound I-043] the pIC50 was 8.64.
For `C[C@@H]1CCCOc2c(cnn2C)-c2cc(ccn2)C(=O)/N=C2\Nc3cn(C)nc3N2C1` [Compound I-044], the pIC50 was 8.47.
Work on `Cc1cc2cc(n1)-c1cnn(C)c1OCC[C@@H](O)[C@H](C)CN1/C(=N/C2=O)Nc2ccccc21` [Compound I-045] yielded a pIC50 of 8.44.
In the case of `O=C1/N=C2\Nc3ccccc3N2CCCCCOc2ccccc2-c2cc1ccn2` [Compound I-047], the pIC50 was 8.21.
With `C[C@@H]1CCOc2ccccc2-c2cc(ccn2)C(=O)/N=C2\Nc3ccccc3N2CC1` [Compound I-048] the pIC50 was 7.82.
`Cc1cc2cc(n1)-c1ccccc1OCCCCCN1/C(=N/C2=O)Nc2ccccc21` [Compound I-049] showed a pIC50 of 7.80.
`CC1(C)CCCOc2ccccc2-c2cc(ccn2)C(=O)/N=C2\Nc3ccccc3N2C1` [Compound I-050] showed a pIC50 of 7.77.
With `C[C@H]1CCCOc2ccccc2-c2cc(ccn2)C(=O)/N=C2\Nc3ccccc3N2C1` [Compound I-051] the pIC50 was 7.70.
With `Cc1cc2cc(n1)-c1cnn(C)c1OCCCCCCCN1/C(=N/C2=O)Nc2ccccc21` [Compound I-052] the pIC50 was 7.64.
For `O=C1/N=C2\Nc3ccccc3N2CCCCCOc2cc(F)ccc2-c2cc1ccn2` [Compound I-053], the pIC50 was 7.62.
In the case of `CC1(C)CCOc2ccccc2-c2cc(ccn2)C(=O)/N=C2\Nc3ccccc3N2CC1` [Compound I-054], the pIC50 was 7.60.
For `Cc1cc2cc(n1)-c1cnn(C)c1OCCCCN1/C(=N/C2=O)Nc2ccccc21` [Compound I-055], the pIC50 was 7.18.
For `Cc1cc2cc(n1)-c1ccc(F)cc1OCCCCCN1/C(=N/C2=O)Nc2ccccc21` [Compound I-056], the pIC50 was 7.16.
